Results: US4376770A, “Cephalosporin analogs for oral use” (Shionogi & Co., Ltd., priority 1980, dated 1983)
Read-outs that look alike come from different tables or passages of the source.

Legend:
Escherichia coli EC-14 = test: Protection test in mice challenged intraperitoneally with Escherichia coli EC-14; type: in vivo; conditions: for ED50: Escherichia coli, 168 h
Protocol: To each group consisting of 5 to 10 mice is challenged 2 to 3×10^5 Escherichia coli EC-14 in 5% mucin intraperitoneally. After 1 hour and 5 hours, a suspension of the ester (1) in the foregoing experiment in 5% acacia solution is administered enterally using a tube into stomach. From the survival rate after 7 days, ED50 of the drug is calculated, and the value in mg/kg is interpreted as the corresponding carboxylic acid.
For using as control, it is necessary to use the effect of the corresponding carboxylic acid. […] Then instead, the ED50 value of the corresponding carboxylic acid (2) on subcutaneous injection is assayed and this is used to evaluate the enteral absorption of the ester (1).
The control value of ED50 for the carboxylic acid (2) is estimated as follows: To each group consisting of 5 to 10 mice challenged by Escherichia coli EC-14 intraperitoneally as in the case of oral experiment above is injected a solution of the carboxylic acid (2) in 0.7% aqueous sodium hydrogen carbonate subcutaneously after 1 and 5 hours after the challenge. The ED50 value is calculated from the survival rate from 7 days and expressed in mg/kg value.

[1] = prior-art compound, statement in words; cited from earlier work
[2] = prior-art compound, statement in words; cited from earlier work; remark: listed apart in the source
[3] = p.o. 1 and 5 hours after challenge, survival after 7 days, value interpreted as the corresponding carboxylic acid, 10080 min
[4] = EC14, po, p.o. 1 and 5 hours after challenge, survival after 7 days, value interpreted as the corresponding carboxylic acid, read-out: ED50 of Ester (1) p.o.
[5] = EC14, sc, subcutaneous in 0.7% aqueous sodium hydrogen carbonate 1 and 5 hours after challenge, survival 7 days, control for ester, read-out: ED50 of Acid (2) subc.
[6] = subcutaneous in 0.7% aqueous sodium hydrogen carbonate 1 and 5 hours after challenge, survival 7 days, control for ester, 10080 min
[7] = subcutaneous in 0.7% aqueous sodium hydrogen carbonate 1 and 5 hours after challenge, survival 7 days, control for ester

## 7β-(2-cyanopropionamido)-7α-methoxy-3-(1-methyl-5-tetrazolyl)thiomethyl-1-dethia-1-oxa-3-cephem-4-carboxylic acid pivaloyloxymethyl ester [No. 1]
Escherichia coli EC-14; p.o. 1 and 5 hours after challenge, survival after 7 days, value interpreted as the corresponding carboxylic acid
  ED50 of Ester (1) p.o.: 1.39 mg/kg

## CCOC(=O)OC(C)OC(=O)C1=C(CSc2nnnn2C)CO[C@H]2N1C(=O)[C@]2(NC(=O)C(C#N)CC)OC (single isomer, unassigned) [No. 6, 7β-(2-cyano-n-butyryl)amino-7α-methoxy-3-(1-methyl-5-tetrazolyl)thiomethyl-1-dethia-1-oxa-3-cephem-4-carboxylic acid 1-(ethoxycarbonyloxy)ethyl ester]
Escherichia coli EC-14; [3]
  ED50 of Ester (1) p.o.: 2.35 mg/kg

## CCOC(=O)OC(C)OC(=O)C1=C(CSc2nnnn2C)CO[C@H]2N1C(=O)[C@]2(NC(=O)C(C#N)CC)OC (single isomer, unassigned) [compound 5]
Escherichia coli EC-14; [4]
  ED50: 2.22 mg/kg

## CCCC(C#N)C(=O)N[C@]1(OC)C(=O)N2C(C(=O)OC(C)OC(=O)OCC)=C(CSc3nnnn3C)CO[C@@H]21 (single isomer, unassigned) [compound 7]
Escherichia coli EC-14; [4]
  ED50: 4.7 mg/kg

## CCCC(C#N)C(=O)N[C@]1(OC)C(=O)N2C(C(=O)OC(C)OC(=O)OCC)=C(CSc3nnnn3C)CO[C@@H]21 (single isomer, unassigned) [compound 8]
Escherichia coli EC-14; [3]
  ED50 of Ester (1) p.o.: 2.82 mg/kg

## CO[C@@]1(NC(=O)C(C)C#N)C(=O)N2C(C(=O)O)=C(CSc3nnnn3C)CO[C@@H]21 (some centres unmarked) [1 (Acid (2))]
Escherichia coli EC-14; [5]
  ED50: 1.68 mg/kg

## CCC(C#N)C(=O)N[C@]1(OC)C(=O)N2C(C(=O)O)=C(CSc3nnnn3C)CO[C@@H]21 (some centres unmarked) [2 (Acid (2))]
Escherichia coli EC-14; [5]
  ED50: 0.47 mg/kg

## CCCC(C#N)C(=O)N[C@]1(OC)C(=O)N2C(C(=O)O)=C(CSc3nnnn3C)CO[C@@H]21 (some centres unmarked) [3 (Acid (2))]
Escherichia coli EC-14; [5]
  ED50: 0.6 mg/kg

## CCCCC(C#N)C(=O)N[C@]1(OC)C(=O)N2C(C(=O)O)=C(CSc3nnnn3C)CO[C@@H]21 (some centres unmarked) [4 (Acid (2))]
Escherichia coli EC-14; [5]
  ED50: 3.18 mg/kg

## CCC(C#N)C(=O)N[C@]1(OC)C(=O)N2C(C(=O)O)=C(CSc3nnnn3C)CO[C@@H]21 (some centres unmarked) [5 (Acid (2))]
Escherichia coli EC-14; [6]
  ED50 of Acid (2) subc.: 0.45 mg/kg

## CCC(C#N)C(=O)N[C@]1(OC)C(=O)N2C(C(=O)O)=C(CSc3nnnn3C)CO[C@@H]21 (some centres unmarked) [6 (Acid (2))]
Escherichia coli EC-14; [6]
  ED50 of Acid (2) subc.: 0.45 mg/kg

## CCCC(C#N)C(=O)N[C@]1(OC)C(=O)N2C(C(=O)O)=C(CSc3nnnn3C)CO[C@@H]21 (some centres unmarked) [7 (Acid (2))]
Escherichia coli EC-14; [7]
  ED50 of Acid (2) subc.: 0.60 mg/kg

## CC(=O)OCC1=C(C(=O)O)N2C(=O)[C@@H](NC(=O)CC#N)[C@H]2OC1 [7β-Cyanoacetamido-1-dethia-1-oxacephalosporanic acid]
[1]
  antibacterial activity: weak antibacterial

## CC(=O)OCC1=C(C(=O)OCOC(=O)C(C)(C)C)N2C(=O)[C@@H](NC(=O)CC#N)[C@H]2SC1 [7β-Cyanoacetamidocephalosporanic acid pivaloyloxymethyl ester]
[2]
  oral absorption: does not show oral absorption sufficient as clinical drugs

## CCCC(C#N)C(=O)N[C@]1(OC)C(=O)N2C(C(=O)O)=C(CSc3nnnn3C)CO[C@@H]21 (some centres unmarked) [8 (Acid (2))]
Escherichia coli EC-14; [7]
  ED50 of Acid (2) subc.: 0.60 mg/kg

## CCC(C#N)C(=O)N[C@]1(OC)C(=O)N2C(C(=O)O)=C(CSc3nncs3)CO[C@@H]21 (some centres unmarked) [9 (Acid (2))]
Escherichia coli EC-14; [5]
  ED50: 0.77 mg/kg

## CCC(C#N)C(=O)N[C@]1(OC)C(=O)N2C(C(=O)O)=C(CSc3nncs3)CO[C@@H]21 (some centres unmarked) [10 (Acid (2))]
Escherichia coli EC-14; [7]
  ED50 of Acid (2) subc.: 0.77 mg/kg

## CCC(C#N)C(=O)N[C@]1(OC)C(=O)N2C(C(=O)O)=C(CSc3nnc(C)s3)CO[C@@H]21 (some centres unmarked) [11 (Acid (2))]
Escherichia coli EC-14; [5]
  ED50: 0.87 mg/kg

## CCC(C#N)C(=O)N[C@]1(OC)C(=O)N2C(C(=O)OCOC(=O)C(C)(C)C)=C(CSc3nncs3)CO[C@@H]21 (some centres unmarked) [No. 9]
Escherichia coli EC-14; [4]
  ED50: 6.5 mg/kg

## CCCC(C#N)C(=O)N[C@]1(OC)C(=O)N2C(C(=O)OCOC(=O)C(C)(C)C)=C(CSc3nnnn3C)CO[C@@H]21 (some centres unmarked) [compound 3]
Escherichia coli EC-14; [4]
  ED50: 5.32 mg/kg

## CCCCC(C#N)C(=O)N[C@]1(OC)C(=O)N2C(C(=O)OCOC(=O)C(C)(C)C)=C(CSc3nnnn3C)CO[C@@H]21 (some centres unmarked) [compound 4]
Escherichia coli EC-14; [4]
  ED50: 29.8 mg/kg

## CCOC(=O)OC(C)OC(=O)C1=C(CSc2nncs2)CO[C@H]2N1C(=O)[C@]2(NC(=O)C(C#N)CC)OC (some centres unmarked) [compound 10]
Escherichia coli EC-14; [4]
  ED50: 3.23 mg/kg

## CCC(C#N)C(=O)N[C@]1(OC)C(=O)N2C(C(=O)OCOC(=O)C(C)(C)C)=C(CSc3nnc(C)s3)CO[C@@H]21 (some centres unmarked) [compound 11]
Escherichia coli EC-14; [4]
  ED50: 3.7 mg/kg
